Experimental data as given in ChEMBL document CHEMBL1201862, “PubChem BioAssay data set” (2004).
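Method: 48-hour compound exposure of cells in 96-well plates, five concentrations, linear interpolation of endpoints. The concentration for 50% growth inhibition is given as GI50.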 The source made the active and inactive calls. Cut-off read from the data, not from the text of the source: active = GI50 up to about 1.1 µM and inactive = higher.

Columns and labels:
Assay in all cases: DTP human tumour cell line panel, 48 h
A549 = tested on: A549
DU-145 = tested on: DU-145
HCC 2998 = tested on: HCC 2998
HL-60 = tested on: HL-60
K562 = tested on: K562
LOX IMVI = tested on: LOX IMVI
M14 = tested on: M14
MOLT-4 = tested on: MOLT-4
NCI-H23 = tested on: NCI-H23
OVCAR-3 = tested on: OVCAR-3
RPMI-8226 = tested on: RPMI-8226
SF-268 = tested on: SF-268
SF-539 = tested on: SF-539
SN12C = tested on: SN12C
SNB-19 = tested on: SNB-19
SR = tested on: SR
U-251 = tested on: U-251
UACC-62 = tested on: UACC-62
UO-31 = tested on: UO-31
SNB-75 = tested on: SNB-75

| Structure (SMILES) | GI50 (A549) | GI50 (DU-145) | GI50 (HCC 2998) | GI50 (HL-60) | GI50 (K562) | GI50 (LOX IMVI) | GI50 (M14) | GI50 (MOLT-4) | GI50 (NCI-H23) | GI50 (OVCAR-3) | GI50 (RPMI-8226) | GI50 (SF-268) | GI50 (SF-539) | GI50 (SN12C) | GI50 (SNB-19) | GI50 (SR) | GI50 (U-251) | GI50 (UACC-62) | GI50 (UO-31) | GI50 (SNB-75) |
| --- | --- | --- | --- | --- | --- | --- | --- | --- | --- | --- | --- | --- | --- | --- | --- | --- | --- | --- | --- | --- |
| C/N=C(\N)N/N=C(\C)c1ccc2oc3ccc(/C(C)=N/N/C(N)=N/C)cc3c2c1 | 2.86 µM (inactive) | 2.35 µM (inactive) | 2 µM (inactive) | 2.89 µM (inactive) | 2.15 µM (inactive) | 2.56 µM (inactive) | 3.24 µM (inactive) | 0.805 µM (active) | 2.39 µM (inactive) | 2.64 µM (inactive) | 2.38 µM (inactive) | 2.09 µM (inactive) | 1.62 µM (inactive) | 2.46 µM (inactive) | 2.11 µM (inactive) | 1.51 µM (inactive) | 1.61 µM (inactive) | 2.88 µM (inactive) | 6.31 µM (inactive) |  |
| Oc1c(Cl)c(Cl)c(O)c(CCNc2ccc3ncccc3c2)c1Cl | 17.2 µM (inactive) | 21.5 µM (inactive) | 12.9 µM (inactive) | 5.07 µM (inactive) | 3.47 µM (inactive) |  | 11.5 µM (inactive) | 1.15 µM (inactive) | 10.2 µM (inactive) | 15.5 µM (inactive) |  | 5.13 µM (inactive) | 12.5 µM (inactive) | 13.9 µM (inactive) | 13.3 µM (inactive) | 3.14 µM (inactive) | 8.87 µM (inactive) | 10.9 µM (inactive) | 12.2 µM (inactive) | 16.1 µM (inactive) |
| Cc1ccc([N+](=O)[O-])cc1S(=O)(=O)Nc1ccc(C2=NNC(c3ccccc3)C2)cc1 (centres undefined) | 19.1 µM (inactive) | 27.9 µM (inactive) | 18.7 µM (inactive) | 16.4 µM (inactive) | 6.73 µM (inactive) |  | 21.4 µM (inactive) | 6.64 µM (inactive) | 15.8 µM (inactive) | 4.74 µM (inactive) | 7.24 µM (inactive) | 16.8 µM (inactive) | 28.1 µM (inactive) | 19.5 µM (inactive) | 30.9 µM (inactive) | 15.1 µM (inactive) |  | 9.33 µM (inactive) | 24.9 µM (inactive) | 24.8 µM (inactive) |
| COc1ccc(CCN2C(=O)CC34C=CC(CC3C2=O)O4)cc1OC (centres undefined) | > 100 µM (inactive) | > 100 µM (inactive) | > 100 µM (inactive) | > 100 µM (inactive) | > 100 µM (inactive) | > 100 µM (inactive) | > 100 µM (inactive) | > 100 µM (inactive) | > 100 µM (inactive) | > 100 µM (inactive) | > 100 µM (inactive) |  | > 100 µM (inactive) | > 100 µM (inactive) | > 100 µM (inactive) | > 100 µM (inactive) | > 100 µM (inactive) | > 100 µM (inactive) | > 100 µM (inactive) |  |
| O=C(Nc1cccc(Cl)c1)Nn1cnnc1 | > 100 µM (inactive) | > 100 µM (inactive) | > 100 µM (inactive) | 66.5 µM (inactive) | > 100 µM (inactive) |  | > 100 µM (inactive) | > 100 µM (inactive) | > 100 µM (inactive) | > 100 µM (inactive) | > 100 µM (inactive) | > 100 µM (inactive) | > 100 µM (inactive) | > 100 µM (inactive) | > 100 µM (inactive) | > 100 µM (inactive) | > 100 µM (inactive) | > 100 µM (inactive) | > 100 µM (inactive) | > 100 µM (inactive) |
| N/C(=N\N=C\c1nc2ccccc2o1)c1cnccn1 | > 100 µM (inactive) | > 100 µM (inactive) |  | 49.9 µM (inactive) | > 100 µM (inactive) | > 100 µM (inactive) | > 100 µM (inactive) | > 100 µM (inactive) | 83.8 µM (inactive) | > 100 µM (inactive) | > 100 µM (inactive) | > 100 µM (inactive) | > 100 µM (inactive) | > 100 µM (inactive) | > 100 µM (inactive) | > 100 µM (inactive) | 35.6 µM (inactive) | > 100 µM (inactive) | > 100 µM (inactive) | 16.4 µM (inactive) |
| COC(=O)C1C(=O)C=CN([C@H](C)c2ccccc2)[C@@H]1Cc1ccc(OC)c(OCc2ccccc2)c1I (some centres undefined) | 15.6 µM (inactive) | 18.2 µM (inactive) | 14.3 µM (inactive) | 17.3 µM (inactive) | 18.2 µM (inactive) | 14.5 µM (inactive) | 14.5 µM (inactive) | 8.79 µM (inactive) | 17 µM (inactive) | 14.6 µM (inactive) | 14.9 µM (inactive) | 14.9 µM (inactive) | 19.4 µM (inactive) | 14.3 µM (inactive) | 15 µM (inactive) | 3.14 µM (inactive) | 17.5 µM (inactive) | 12.3 µM (inactive) | 12 µM (inactive) |  |
| O=C(O)c1ccc2c(c1C(=O)O)C(=O)OC2(c1ccc(O)cc1)c1ccc(O)cc1 | > 100 µM (inactive) | > 100 µM (inactive) |  | > 100 µM (inactive) | > 100 µM (inactive) | > 100 µM (inactive) | > 100 µM (inactive) | > 100 µM (inactive) | > 100 µM (inactive) | > 100 µM (inactive) | > 100 µM (inactive) | > 100 µM (inactive) | > 100 µM (inactive) | > 100 µM (inactive) | > 100 µM (inactive) | > 100 µM (inactive) | > 100 µM (inactive) | > 100 µM (inactive) | > 100 µM (inactive) | > 100 µM (inactive) |
| CC(=O)Nc1ccc(-c2nc3ccccc3s2)cc1C |  | 22.2 µM (inactive) | 42.9 µM (inactive) | 29.9 µM (inactive) |  | 36.5 µM (inactive) | 68.7 µM (inactive) | 24.9 µM (inactive) | 75.5 µM (inactive) |  | 55.2 µM (inactive) | 64.4 µM (inactive) | 50.8 µM (inactive) |  | 36.9 µM (inactive) | 27.7 µM (inactive) | 71.6 µM (inactive) | 47.1 µM (inactive) | 17.9 µM (inactive) | 38.5 µM (inactive) |
| CC[C@H](C)[C@H](NC(=O)[C@@]1(O)[C@H](O)[C@]2(CC)C=CCN3CC[C@@]4(c5cc(Br)c(OC)cc5N(C)[C@@H]14)[C@@H]32)C(=O)OC | 20.5 µM (inactive) | > 100 µM (inactive) | 23.8 µM (inactive) | 37.8 µM (inactive) | 67.1 µM (inactive) | 16.8 µM (inactive) | 22.1 µM (inactive) | 22.8 µM (inactive) | 86.1 µM (inactive) | 20.7 µM (inactive) | 14.2 µM (inactive) | 27.7 µM (inactive) | 27.5 µM (inactive) | 27.2 µM (inactive) | 64.3 µM (inactive) | 27.2 µM (inactive) | 27.8 µM (inactive) | 12.6 µM (inactive) | 44.4 µM (inactive) |  |
| CCOC(=O)Cc1nnc2c(-c3ccccc3)nc3ccccc3n12 | > 100 µM (inactive) | 33 µM (inactive) | 15.7 µM (inactive) | > 100 µM (inactive) | > 100 µM (inactive) | 53.7 µM (inactive) | > 100 µM (inactive) | > 100 µM (inactive) | 43.3 µM (inactive) | 14.6 µM (inactive) | > 100 µM (inactive) | 20.6 µM (inactive) | > 100 µM (inactive) | 53.8 µM (inactive) | 24.8 µM (inactive) | > 100 µM (inactive) | 22.4 µM (inactive) | 44.7 µM (inactive) | 71 µM (inactive) |  |
| CCCCCCCCCCN(CCCCCCCCCC)C(=O)COc1c2cc(C(C)(C)C)cc1Cc1cc(C(C)(C)C)cc(c1OCC(=O)N(CCCCCCCCCC)CCCCCCCCCC)Cc1cc(C(C)(C)C)cc(c1OCC(=O)N(CCCCCCCCCC)CCCCCCCCCC)Cc1cc(C(C)(C)C)cc(c1OCC(=O)N(CCCCCCCCCC)CCCCCCCCCC)C2 | 16 µM (inactive) | 17.8 µM (inactive) | 8.85 µM (inactive) | 15 µM (inactive) | 1.9 µM (inactive) | 10.2 µM (inactive) | 2.92 µM (inactive) | 2.76 µM (inactive) | 1.75 µM (inactive) | 15.7 µM (inactive) |  | 15.1 µM (inactive) | 4.34 µM (inactive) | 13.4 µM (inactive) | 9.79 µM (inactive) | 2.96 µM (inactive) | 11.2 µM (inactive) | 12.6 µM (inactive) | 22 µM (inactive) | 18.2 µM (inactive) |
| O=c1[nH]ncc2[nH]c3c(c12)CCc1ccccc1-3 | 29 µM (inactive) | 38 µM (inactive) |  | 24.7 µM (inactive) | 28.9 µM (inactive) | 22.5 µM (inactive) | 44.3 µM (inactive) | 24.3 µM (inactive) | 39.4 µM (inactive) | 28.2 µM (inactive) | 30.1 µM (inactive) | 32.1 µM (inactive) | 18.5 µM (inactive) | 36.5 µM (inactive) | 54.3 µM (inactive) | 19.1 µM (inactive) | 31.6 µM (inactive) |  | 30.2 µM (inactive) | 13 µM (inactive) |
| CC1C=C(NCC2(CO)CCC2)N=C(N)N1 (centres undefined) | > 100 µM (inactive) | > 100 µM (inactive) | > 100 µM (inactive) | > 100 µM (inactive) | > 100 µM (inactive) | > 100 µM (inactive) | > 100 µM (inactive) | > 100 µM (inactive) | > 100 µM (inactive) | > 100 µM (inactive) | > 100 µM (inactive) | > 100 µM (inactive) |  | > 100 µM (inactive) | > 100 µM (inactive) | > 100 µM (inactive) | > 100 µM (inactive) | > 100 µM (inactive) | > 100 µM (inactive) | > 100 µM (inactive) |
